How the values were obtained:
[1] = target: T1, human leukocyte elastase (HLE) (Homo sapiens, UniProt P08246); assay: Inactivation of human leukocyte elastase by biotin-isocoumarins (incubation method); assay type: biochemical; settings: inhibitor 1.6-210 μM; pH 7.5, 25° C.; read-out: kobs/[I] HLE
T1 sequence (P08246 30-267): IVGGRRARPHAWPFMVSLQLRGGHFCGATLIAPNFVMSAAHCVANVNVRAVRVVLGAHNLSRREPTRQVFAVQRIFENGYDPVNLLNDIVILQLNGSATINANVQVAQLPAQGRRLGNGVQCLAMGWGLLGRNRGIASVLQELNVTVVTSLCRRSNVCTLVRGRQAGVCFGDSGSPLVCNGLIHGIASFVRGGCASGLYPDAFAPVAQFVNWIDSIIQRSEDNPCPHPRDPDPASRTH
Experimental: (§1) Inactivation rates of serine proteases by substituted isocoumarins were measured by the incubation method. An aliquot of inhibitor (25 or 50 μl) in Me2 SO was added to a buffered enzyme solution (0.01-2.3 μM) to initiate the inactivation. Aliquots (50-100 μl) were withdrawn at various intervals and the residual enzymatic activity was measured. Me2 SO concentration in the reaction mixture was 8-12% (v/v). 0.1M Hepes, 0.5M NaCl, pH 7.5 buffer was utilized for the assays of chymotrypsin, cathepsin G (cat G), porcine pancreatic elastase (PPE), human leukocyte elastase (HLE) and rat granule serine proteases. 0.1M Hepes, 0.01M CaCl2, pH 7.5 buffer was utilized for the assays of trypsin and human recombinant (HR) granzyme A. The inhibitor concentrations are shown in the Tables I and II. Peptide nitroanilides with appropriate sequence were used as substrates for various serine proteases. All peptide 4-nitroanilide hydrolysis was measured at 410 nm (ε410 =8800M^-1 cm^-1; Erlanger et al., Arch. Biochem. Biophys. 95, pp 271-278 (1961), incorporated herein by reference). Peptide thioester hydrolysis rates were measured with assay mixtures containing 4,4'-dithiodipyridine (ε324 =19800M^-1 cm^-1; Grasetti & Murray, Arch. Biochem. Biophys. 119, pp. 41-49 (1967), incorporated herein by reference). First order inactivation rate constant (kobs) were obtained from plots of ln (vt /vo) vs time, and the correlation coefficients were greater than 0.98.
(§2) ^a Inhibition was measured in 0.1 M Hepes, 0.5 M NaCl (or 0.01 M
(§3) CaCl2), pH 7.5 buffer, 5-10% Me2 SO and at 25° C.
(§4) G. MeOSuc-Ala-Ala-Pro-Val-NA (0.24-0.47 mM) and SucAla-Ala-Ala-NA
(0.29-0.48 mM) were used as the substrate for HLE and PPE respectively.
^d Inhibitor concentrations were 1.6-210 μM.

chymotrypsin [2] = target: T2, chymotrypsin (Bos taurus, UniProt P00766); assay: Inactivation of chymotrypsin by biotin-isocoumarins (incubation method); assay type: biochemical, bovine; settings: 0.1 M Hepes, 0.5 M NaCl, pH 7.5, 5-10% Me2SO, 25° C., two values given for some compounds
Experimental: as §1, §2, §3
(§5) SucVal-Pro-NA (0.48 mM) was used as the substrate for chymotrypsin and ca
^b Inhibitor concentrations were 20-400 μM.

trypsin = target: T3, trypsin (Bos taurus, UniProt P00760); assay: Inactivation of trypsin by biotin-isocoumarins (incubation method); assay type: biochemical; settings: inhibitor 41-42 μM; 0.1 M Hepes, 0.01 M CaCl2, pH 7.5, 25° C.; read-out: kobs/[I] Trypsin
T3 sequence (P00760 24-246): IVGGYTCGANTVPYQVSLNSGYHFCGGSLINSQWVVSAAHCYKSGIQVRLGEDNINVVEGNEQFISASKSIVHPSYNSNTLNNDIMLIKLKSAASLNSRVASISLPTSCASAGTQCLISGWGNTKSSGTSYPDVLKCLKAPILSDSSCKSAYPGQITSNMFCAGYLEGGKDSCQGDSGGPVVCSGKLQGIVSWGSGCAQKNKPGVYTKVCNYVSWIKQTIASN
Experimental: as §1, §2, §3
(§6) ZGlu-Phe-Arg-NA (0.032 mM) was a substrate for trypsin. ZArg-SBzl (0.120
^f Inhibitor concentrations were 41-42 μM.

Rat Granule Chymase [3] = assay: Inhibition of rat granule chymase; assay type: biochemical; settings: [I] 0.2 mM; inhibition not time dependent; pH 7.5, 10% Me2SO, 25° C.
Experimental: as §1, with “First order inactivation rate constant (kobs) were obtained from plots of ln (vt /vo) vs time, and the correlation coefficients were greater than 0.98.” left out
(§7) ^a Inhibition was measured in 0.1 M Hepes, 0.5 M NaCl, pH 7.5 buffer, […]

Rat Granule Tryptase = assay: Inhibition of rat granule tryptase; assay type: biochemical; settings: [I] 0.078 mM or 0.2 mM as per table line; pH 7.5, 10% Me2SO, 25° C.
Experimental: as §1, with “First order inactivation rate constant (kobs) were obtained from plots of ln (vt /vo) vs time, and the correlation coefficients were greater than 0.98.” left out
as §7

chymotrypsin [4] = target: T2, chymotrypsin; assay: Reactivation of inhibited chymotrypsin in buffer and with NH2OH; assay type: biochemical, bovine
Experimental: (§8) ^a Inhibition was performed at 0.1 M Hepes, 0.5 M NaCl, pH 7.5 buffer
(§9) 10% Me2 SO and 25° C. Reactivation was carried out in the
presence of 0.4 M of NH2 OH, and occurred immediately after the
^b Enzyme activity was measured after removal of excess inhibitor by
centrifugation at 0° C. with centricon10 microconcentrator and
staying at 25° C. for two days.

Rat Granule Chymase [5] = assay: Reactivation of inhibited rat granule chymase with NH2OH; assay type: biochemical; settings: 0.4 M NH2OH, immediately after addition
Experimental: as §8, §9
presence of 0.4 M of NH2 OH, and occurred immediately after the […]

chymotrypsin [6] = target: T2, chymotrypsin; assay: Effect of streptavidin and avidin on reactivation of inhibited chymotrypsin; assay type: biochemical, bovine; settings: monitored for two days
Experimental: ^a Percentage of regained enzymatic activity was measured in 0.1 M
Hepes, 0.5 M NaCl, pH 7.5 buffer, 8% Me2 SO and at 25° C.
Excess inhibitor was removed from enzymeinhibitor mixture by
centrifugation twice with Amicon microconcentrator10. Then 3-4 units of
avidin or strepavidin was added and enzymatic activity was monitored for […]

cathepsin G (cat G) = target: T4, cathepsin G (cat G) (Homo sapiens, UniProt P08311); assay: Inactivation of cathepsin G by biotin-isocoumarins (incubation method); assay type: biochemical; settings: inhibitor 75-400 μM; pH 7.5, 25° C.; 10 min
T4 sequence (P08311 21-255): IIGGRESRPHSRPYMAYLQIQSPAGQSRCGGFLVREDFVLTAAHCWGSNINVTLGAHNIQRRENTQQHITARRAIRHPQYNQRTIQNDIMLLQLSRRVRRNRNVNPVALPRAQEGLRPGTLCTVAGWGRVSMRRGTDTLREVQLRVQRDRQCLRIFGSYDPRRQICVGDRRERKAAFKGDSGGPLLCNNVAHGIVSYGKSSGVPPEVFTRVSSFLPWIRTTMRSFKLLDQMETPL
Experimental: as §1, §2, §3, §5, §4
^c Inhibitor concentrations were 75-400 μM.
(§10) ^h No inhibition after 10 min of incubation of inhibitor and enzyme.
(§11) ^i Percentage of inhibition after 10 min of incubation of inhibitor

[7] = target: T5, human recombinant (HR) granzyme A (Homo sapiens, UniProt P12544); assay: Inactivation of human recombinant granzyme A by biotin-isocoumarins (incubation method); assay type: biochemical; settings: inhibitor 160-210 μM, pH 7.5, 25° C.
T5 sequence (P12544 29-262): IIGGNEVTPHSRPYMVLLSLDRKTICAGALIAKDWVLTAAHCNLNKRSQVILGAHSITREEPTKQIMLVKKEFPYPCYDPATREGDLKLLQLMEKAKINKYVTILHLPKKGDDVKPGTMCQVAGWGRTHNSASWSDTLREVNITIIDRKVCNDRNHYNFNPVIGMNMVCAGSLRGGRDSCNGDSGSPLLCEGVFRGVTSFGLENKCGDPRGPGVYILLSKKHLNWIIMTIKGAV
Experimental: as §1, §2, §3, §6
mM) was a substrate for human recombinant (HR) granzyme A.
^g Inhibitor concentrations were 160-210 μM.
as §10, §11

| Structure (SMILES) | kinact/KI [1] | kobs/[I] Chymotrypsin (chymotrypsin [2]; inhibitor 20-400 μM) | kinact/KI (chymotrypsin [2]; pH 7.5, inhibitor 20-400 μM, read-out: kobs/[I] Chymotrypsin) | kinact/KI (trypsin) | Rat Granule Chymase % of inhibition (Rat Granule Chymase [3]) | Rat Granule Tryptase kobs/[I] (Rat Granule Tryptase) | % of Enzyme Activity Reactivated, Chymotrypsin +NH2OH (chymotrypsin [4]; 0.4 M NH2OH, immediately after addition) | % of Enzyme Activity Reactivated, Chymotrypsin in buffer (chymotrypsin [4]; after removal of excess inhibitor, 25° C. for two days) | % of Enzyme Activity Reactivated, Rat granule chymase +NH2OH (Rat Granule Chymase [5]) | % of Regained Enzyme Activity, Chymotrypsin, +Streptavidin (chymotrypsin [6]; 3-4 units streptavidin, 2880 min) | % of Regained Enzyme Activity, Chymotrypsin, Buffer (chymotrypsin [6]; pH 7.5, 8% Me2SO, 25° C.) | Percentage of inhibition of Cat. G after 10 min of incubation of inhibitor and enzyme (cathepsin G (cat G)) | Percentage of inhibition of HR Granzyme A after 10 min of incubation of inhibitor and enzyme [7] |
| --- | --- | --- | --- | --- | --- | --- | --- | --- | --- | --- | --- | --- | --- |
| O=C(CCCCCNC(=O)CCCCC1SCC2NC(=O)NC21)NCCCCCC(=O)Nc1ccc2c(Cl)c(OCCc3ccccc3)oc(=O)c2c1 (stereo not drawn) [Compound 7, 7-[6-(6-biotinylaminocaproyl)aminocaproyl]-amino-4-chloro-3-(2-phenylethoxy)-isocoumarin] | 230 M⁻¹ s⁻¹ | – | – | – | – | – | – | – | – | – | – | – | – |
| O=C(CCCC[C@@H]1SC[C@@H]2NC(=O)N[C@@H]21)Nc1ccc2c(Cl)c(OCCc3ccccc3)oc(=O)c2c1 [Compound 1, 7-biotinylamino-4-chloro-3-(2-phenylethoxy)isocoumarin] | 740 M⁻¹ s⁻¹ | 165 M⁻¹ s⁻¹ | 330 M⁻¹ s⁻¹ | 1.1 M⁻¹ s⁻¹ | 10-20% | 2 to 3 M⁻¹ s⁻¹ | 100% | 15% | 100% | 27% | 10% | – | – |
| O=C(CCCCC1SCC2NC(=O)NC21)NCCNC(=O)CNC(=O)Nc1ccc2c(Cl)c(OCCc3ccccc3)oc(=O)c2c1 (stereo not drawn) [Compound 8, 7-biotin-NH(CH2)2 NH--COCH2 NHCONH-4-chloro-3-(2-phenylethoxy)isocoumarin] | 6.6 M⁻¹ s⁻¹ | – | – | – | – | – | – | – | – | – | – | 19% | 18% |

Source: patent US5306824A, “Biotinylated isocoumarins” (Georgia Tech Research Corporation, priority 1992, dated 1994)
